The conditions of data set [1]: in vivo.
Experimental: (§1) A second study was designed to assess the local toxicity of dexamethasone administered via the Bullfrog Micro-Infusion Device in a swine model. The following objectives were met in the study: In each of four subjects, confirmation of the safety of up to 16 mg dexamethasone delivered to the adventitia and perivascular tissue of each of 4 peripheral arteries and 6.4 mg dexamethasone delivered to the adventitia and perivascular tissue of each of 3 coronary arteries (at 3.2 mg/mL with 20% contrast), as compared to normal untreated tissue in two untreated subjects by clinical pathology and histopathology examination, at 28±3 days.
Data set [2] concerns P-selectin. Particulars: cited from earlier work.
Data set [3] is described as follows: Local toxicity of dexamethasone administered via Bullfrog device to peripheral and coronary arteries in swine. The conditions noted are these: 28±3 days.
Experimental: as §1
The subject of data set [4] is vWF. Particulars: at 24 hours and 48 hours with dexamethasone treatment; cited from earlier work.
A short description of data set [5]: DANCE-Pilot study and DANCE trial: adventitial dexamethasone after femoropopliteal revascularization. The format is in vivo, human. The conditions noted are these: for Rate of CD-TLR: 12 months; for transient hyperglycemia event: controlled with insulin. The source says: Provided herein are examples of in vivo human clinical trials using the Bullfrog Micro-Infusion Device for local delivery of dexamethasone. The Bullfrog Micro-Infusion Device was successfully used in the DANCE (Dexamethasone to the Adventitia to Enhance Clinical Efficacy After Femoropopliteal Revascularization)-Pilot study and the DANCE trial in superficial femoral and popliteal arteries.
In the DANCE-Pilot study, 20 subjects were enrolled and treated with the Bullfrog device delivery of dexamethasone sodium phosphate. In the DANCE trial, 283 limbs were enrolled and treated with the Bullfrog device delivery of dexamethasone sodium phosphate. In 3.3% of the subjects enrolled in DANCE, there was no detected contrast medium distribution in the adventitia and perivascular tissues. In one subject in DANCE-Pilot and one subject in DANCE, there was a transient hyperglycemia event reported, which was treated and controlled with insulin therapy. There were no other unexpected adverse device events or suspected unexpected severe adverse reactions reported in the study.
The single-arm DANCE (Dexamethasone to the Adventitia to Enhance Clinical Efficacy After Femoropopliteal Revascularization) trial enrolled 262 subjects (283 limbs) with symptomatic peripheral artery disease (Rutherford category 2 to 4) receiving percutaneous transluminal angioplasty (PTA) (n=124) or atherectomy (ATX) (n=159) in femoropopliteal lesions <15 cm in length. A mixture of dexamethasone/contrast medium (80%/20%) was delivered to the adventitia and perivascular tissues surrounding target lesions in all subjects. Thirty-day assessments included major adverse limb events (MALE) and post-operative death. Twelve-month assessments included primary patency, freedom from clinically driven target lesion revascularization (CD-TLR), Rutherford scoring, and walking impairment questionnaire. […] In the secondary analysis, both the ATX and PTA DANCE groups were noninferior to the 72.3% contemporary performance goal, whether examining the PP (P<0.001 and P<0.004, respectively) or ITT (P<0.002 and P<0.005, respectively) population.

The conditions of data set [6]: 10 mg equivalent dexamethasone phosphate in 3 ml, after angioplasty, 14 days.
Experimental: A first study was designed to compare a high dose of dexamethasone (10 mg equivalent dose of dexamethasone phosphate) delivered in 3 ml volume to the perivascular tissue of porcine AV grafts (6 mm ringed PTFE) implanted between femoral artery and femoral vein pairs, bilaterally. Fourteen days after graft implantation, percutaneous transluminal angioplasty (PTA) was performed (7 mm balloon, 16 atmosphere inflation pressure) at two sites per graft: across the graft-vein anastomosis (GVA) and in the proximal vein (PV). Perivascular infusion of either dexamethasone (6 grafts) or placebo (2 grafts) was administered following the PTA procedure. Infusions of 3m1 were always consistent between the 2 grafts in each animal. Animals were euthanized 14 days after the treatment procedure and the graft-vein anastomosis and proximal vein were analyzed by histopathology and histomorphometry to determine adverse effects from the high dose of dexamethasone. The study was not powered to identify differences in stenosis but rather was aimed at determining dexamethasone local toxicity.

Like-named read-outs stand apart in the source and are kept apart here.

As for `C[C@@H]1C[C@H]2[C@@H]3CCC4=CC(=O)C=C[C@]4(C)[C@@]3(F)[C@@H](O)C[C@]2(C)[C@@]1(O)C(=O)CO` [dexamethasone, 9-fluoro-11(beta),17,21-trihydroxy-16(alpha)-methylpregna-1,4-diene-3,20-dione], the “adverse or toxicologically meaningful changes in the treated vessels” value in data set [1] is reported as “no adverse or toxicologically meaningful changes”. For the same compound, the “P-selectin, time of elevation” value in data set [2] (dexamethasone treatment) is 48 h. In addition, the P-selectin levels result is reported as “induced elevated P-selectin levels” in data set [2] (high dose 1 mg/kg bid×2 days, healthy males) and “did not induce elevated P-selectin levels” in data set [2] (low dose 0.04 mg/kg bid×2 days). The “gross necropsy, injury to the treatment areas” value in data set [3] is given as “no evidence of injury”. The “local toxicity to the treated vessels (microscopic evaluation)” value in data set [3] was “no evidence of local toxicity”. The “local vascular irritation upon injection” value in data set [3] is given as “no evidence of local vascular irritation”. For the same compound, in data set [3], the “peripheral organs abnormalities associated with test article” value is “did not reveal any abnormalities”. Moreover, the “thrombosis or stenosis of treated vessels” value in data set [3] is “no evidence of thrombosis or stenosis”. Besides, in data set [3] (up to 83.2 mg per subject), the “adverse postoperative events leading to early death” value is listed as “None of the animals”. For the same compound, in data set [4], the vWF result is recorded as “elevated”. Besides, the “30-day MALE+post-operative death events” value in data set [5] (DANCE trial) is on record as “no 30-day MALE+post-operative death events”. Also, the “Rate of CD-TLR” value in data set [5] (DANCE-ATX, ITT) worked out at 13.1%; in data set [5] (DANCE-ATX, per-protocol), 10.0%; in data set [5] (DANCE-PTA, ITT), 13.7%; in data set [5] (DANCE-PTA, per-protocol), 11.0%. The “primary patency rate at 12 months” value is 74.8% in data set [5] (DANCE-ATX, intent-to-treat); 78.4% in data set [5] (DANCE-ATX, per-protocol); 74.3% in data set [5] (DANCE-PTA, intent-to-treat); 75.5% in data set [5] (DANCE-PTA, per-protocol). Further, the dose-limiting toxicity result in data set [5] (in vivo) was “No dose-limiting toxicity”. Also, in data set [6], the “histopathology findings of femoral GVA vs perivascular placebo” value was “no differences”.
Regarding `C[C@@H]1C[C@H]2[C@@H]3CCC4=CC(=O)C=C[C@]4(C)[C@@]3(F)[C@@H](O)C[C@]2(C)[C@@]1(O)C(=O)COP(=O)(O)O` [dexamethasone sodium phosphate], in data set [5] (DANCE-Pilot and DANCE), the “other unexpected adverse device events or suspected unexpected severe adverse reactions” value is listed as “no other”. Besides, the transient hyperglycemia event entry in data set [5] (DANCE-Pilot, 20 subjects) is reported as “one subject”; in data set [5] (DANCE) it was “one subject”.
